Patent EP4786487A1, “PEPTIDE” (Peptidream Inc, priority 2023, dated 2025)
pIC50: −log10 of the molar value. Like-named read-outs stand apart in the source and are kept apart here. Starred links: 1 amine or outer side, 2 acyl side, 3 side chain; linkers in the order of their positions; H or OH if unused. Positions of bridges follow the written chain, without caps; N, C: chain ends. Non-standard residues stand in square brackets, D forms with d. Residues, ends and D or L forms follow the SMILES beside them. *: point of attachment. Phe(3-OCH2COOH) = N[C@@H](Cc1cccc(OCC(=O)O)c1)C(=O)O; Phe(4-COOH) = N[C@@H](Cc1ccc(C(=O)O)cc1)C(=O)O; Trp(7-aza) = N[C@@H](Cc1c[nH]c2ncccc12)C(=O)O; Piperazinyl(4-CH2COOH) = O=C(O)CN1CCN(*)CC1; Bip = N[C@@H](Cc1ccc(-c2ccccc2)cc1)C(=O)O; Gly(N(CH2)3COOH) = O=C(O)CCCNCC(=O)O; NMeY = CN[C@@H](Cc1ccc(O)cc1)C(=O)O; X1 = CCCCCCC[C@H](N[*:1])C(=O)[*:2]; NMeF = CN[C@@H](Cc1ccccc1)C(=O)O; 4Pal = N[C@@H](Cc1ccncc1)C(=O)O; NMeE = CN[C@@H](CCC(=O)O)C(=O)O; Ahp(2) = CCCCC[C@H](N)C(=O)O; NMeA = CN[C@@H](C)C(=O)O; X9 = NC(=O)CC1CCN(*)CC1; Sar = CNCC(=O)O; X17 = CCCCC*

Key:
Format in all cases: cell-based
GDF-11 = target: T1, GDF-11 (Homo sapiens, UniProt O95390); assay: Reporter gene assay for myostatin signaling in HepG2 cell line, Evaluation Procedure (1), GDF-11 inhibition; conditions: read-out: IC50 (Luciferase) GDF-11 HepG2
T1 construct: purchased R&D systems 1958-GD-G8/CF
T1 sequence (O95390 299-407): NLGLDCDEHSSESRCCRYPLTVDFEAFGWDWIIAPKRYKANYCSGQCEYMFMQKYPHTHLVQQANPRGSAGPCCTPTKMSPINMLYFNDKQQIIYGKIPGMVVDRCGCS
In short: (§1)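 HepG2 cells transfected with pGL3(CAGA)12-luciferase reporter, serum-starved in 0.1% BSA medium, then stimulated with myostatin or GDF-11 plus 4-fold peptide dilutions (0.006–100 nmol/L for myostatin, 0.12–2000 nmol/L for GDF-11) for 20–24 h at 37 °C. Luminescence read with One-Glo; IC50 calculated.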

Myostatin [1] = assay: Reporter gene assay for myostatin signaling in HepG2 cell line, Evaluation Procedure (1), myostatin inhibition; conditions: GDF-11 IC50 versus Myostatin IC50
In short: as §1

Myostatin [2] = target: T2, Myostatin (Homo sapiens, UniProt O14793); assay: as above; conditions: read-out: IC50 (Luciferase) Myostatin HepG2
T2 construct: active myostatin (also called mature myostatin) is a homodimer consisting of two C-terminal growth factor domains; purchased R&D systems 788-G8/CF
T2 sequence (O14793 267-375): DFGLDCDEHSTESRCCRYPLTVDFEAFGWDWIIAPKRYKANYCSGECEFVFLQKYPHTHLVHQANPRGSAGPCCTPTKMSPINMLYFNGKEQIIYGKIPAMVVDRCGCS
In short: as §1

| Compound | pIC50 (GDF-11; Method A: GDF-11 10 ng/mL) | Selectivity (Myostatin [1]; Method A) | pIC50 (Myostatin [2]; Method A: Myostatin 10 ng/mL) | pIC50 (GDF-11; Method B: GDF-11 1 ng/mL) | Selectivity (Myostatin [1]; Method B) | pIC50 (Myostatin [2]; Method B: Myostatin 1 ng/mL) |
| --- | --- | --- | --- | --- | --- | --- |
| CCCCC[C@@H]1NC(=O)[C@H](Cc2ccccc2)N(C)C(=O)[C@H](CCCNC(=N)N)NC(=O)[C@H](Cc2ccc(C(=O)O)cc2)NC(=O)[C@H](Cc2cccc(OCC(=O)O)c2)NC(=O)CN(C)C(=O)[C@H]([C@@H](C)CC)NC(=O)[C@H](Cc2ccc(O)cc2)N(C)C(=O)[C@H](Cc2ccc(O)cc2)NC(=O)[C@H](Cc2ccc(-c3ccccc3)cc2)NC(=O)[C@H](C)NC(=O)CN(CCCC(=O)O)C(=O)CSC[C@H](C(=O)O)NC(=O)[C@H](Cc2ccccc2)N(C)C(=O)[C@H](C)N(C)C1=O [Myostatin_99_v116] ({CH2CO}-[Gly(N(CH2)3COOH)]A[Bip]Y[NMeY]I[Sar][Phe(3-OCH2COOH)][Phe(4-COOH)]R[NMeF][Ahp(2)][NMeA][NMeF][dC]-OH; thioether N-15) | 5.71 | 364 | 8.27 |  |  |  |
| CCCCCCC[C@@H]1NC(=O)[C@H](Cc2ccccc2)N(C)C(=O)[C@H](CCCNC(=N)N)NC(=O)[C@H](Cc2ccc(C(=O)O)cc2)NC(=O)[C@H](Cc2cccc(OCC(=O)O)c2)NC(=O)[C@H](C)N(C)C(=O)[C@H]([C@@H](C)CC)NC(=O)[C@H](Cc2ccccc2)N(C)C(=O)[C@H](Cc2ccc(O)cc2)NC(=O)[C@H](Cc2c[nH]c3ccccc23)NC(=O)[C@H](C)NC(=O)[C@H](C)N(C)C(=O)CSC[C@H](C(=O)O)NC(=O)[C@H](Cc2ccccc2)N(C)C(=O)[C@H](C)N(C)C1=O [Myostatin_99_v195] ({CH2CO}-[NMeA]AWY[NMeF]I[NMeA][Phe(3-OCH2COOH)][Phe(4-COOH)]R[NMeF][X1][NMeA][NMeF][dC]-OH; thioether N-15) | 6.59 | 196 | 8.89 |  |  |  |
| CCCCCCC[C@@H]1NC(=O)[C@H](Cc2ccccc2)NC(=O)[C@H](CCCNC(=N)N)NC(=O)[C@H](Cc2ccc(C(=O)O)cc2)NC(=O)[C@H](Cc2cccc(OCC(=O)O)c2)NC(=O)CN(C)C(=O)[C@H]([C@@H](C)CC)NC(=O)[C@H](Cc2ccccc2)N(C)C(=O)[C@H](Cc2ccc(O)cc2)NC(=O)[C@H](Cc2c[nH]c3ccccc23)NC(=O)[C@H](C)NC(=O)[C@H](C)NC(=O)CSC[C@H](C(=O)O)NC(=O)[C@H](Cc2ccccc2)N(C)C(=O)[C@H](C)N(C)C1=O [Myostatin_99_v212] ({CH2CO}-AAWY[NMeF]I[Sar][Phe(3-OCH2COOH)][Phe(4-COOH)]RF[X1][NMeA][NMeF][dC]-OH; thioether N-15) | 6.56 | 84 | 8.48 |  |  |  |
| CCCCCOC[C@@H]1NC(=O)[C@H](Cc2ccccc2)N(C)C(=O)[C@H](CCCNC(=N)N)NC(=O)[C@H](Cc2ccc(C(=O)O)cc2)NC(=O)[C@H](Cc2ccncc2)NC(=O)CN(C)C(=O)[C@H]([C@@H](C)CC)NC(=O)[C@H](Cc2ccccc2)N(C)C(=O)[C@H](Cc2ccc(O)cc2)NC(=O)[C@H](Cc2c[nH]c3ccccc23)NC(=O)[C@H](C)NC(=O)CN(CCCC(=O)O)C(=O)CSC[C@H](C(=O)O)NC(=O)[C@H](Cc2ccccc2)N(C)C(=O)[C@H](C)N(C)C1=O [Myostatin_99_v226] ({CH2CO}-[Gly(N(CH2)3COOH)]AWY[NMeF]I[Sar][4Pal][Phe(4-COOH)]R[NMeF]S(X17)[NMeA][NMeF][dC]-OH; thioether N-15) | 5.40 | 391 | 7.99 |  |  |  |
| CCCCCCC[C@@H]1NC(=O)[C@H](Cc2ccccc2)N(C)C(=O)[C@H](CCCNC(=N)N)NC(=O)[C@H](Cc2ccc(C(=O)O)cc2)NC(=O)[C@H](Cc2ccc(O)cc2)NC(=O)CN(C)C(=O)[C@H]([C@@H](C)CC)NC(=O)[C@H](Cc2ccccc2)N(C)C(=O)[C@H](Cc2ccc(O)cc2)NC(=O)[C@H](Cc2c[nH]c3ccccc23)NC(=O)[C@H](CO)NC(=O)CN(CCCC(=O)O)C(=O)CSC[C@H](C(=O)O)NC(=O)[C@H](Cc2ccccc2)N(C)C(=O)[C@H](C)N(C)C1=O [Myostatin_99_v173] ({CH2CO}-[Gly(N(CH2)3COOH)]SWY[NMeF]I[Sar]Y[Phe(4-COOH)]R[NMeF][X1][NMeA][NMeF][dC]-OH; thioether N-15) | 6.63 | 42 | 8.26 |  |  |  |
| CC[C@H](C)[C@@H]1NC(=O)[C@H](Cc2ccccc2)N(C)C(=O)[C@H](Cc2ccc(O)cc2)NC(=O)[C@H](Cc2c[nH]c3ccccc23)NC(=O)[C@H](CO)NC(=O)[C@H](C)NC(=O)CSC[C@H](C(=O)O)NC(=O)[C@H](Cc2ccccc2)N(C)C(=O)[C@H](C)N(C)C(=O)[C@H](CC(C)C)NC(=O)[C@H](Cc2ccccc2)N(C)C(=O)[C@H](CCCNC(=N)N)NC(=O)[C@H](Cc2ccc(C(=O)O)cc2)NC(=O)[C@H](Cc2ccc(O)cc2)NC(=O)CN(C)C1=O [Myostatin_99_v175] ({CH2CO}-ASWY[NMeF]I[Sar]Y[Phe(4-COOH)]R[NMeF]L[NMeA][NMeF][dC]-OH; thioether N-15) | 6.40 | 24 | 7.79 |  |  |  |
| CCCCCCC[C@@H]1NC(=O)[C@H](Cc2ccccc2)N(C)C(=O)[C@H](CCCNC(=N)N)NC(=O)[C@H](Cc2ccc(C(=O)O)cc2)NC(=O)[C@H](Cc2cccc(OCC(=O)O)c2)NC(=O)[C@H]2CCCN2C(=O)[C@H]([C@@H](C)CC)NC(=O)[C@H](Cc2ccccc2)N(C)C(=O)[C@H](Cc2ccc(O)cc2)NC(=O)[C@H](Cc2c[nH]c3ccccc23)NC(=O)[C@@H](CCC(=O)O)NC(=O)[C@H](C)NC(=O)CSC[C@H](C(=O)N2CCN(CC(=O)O)CC2)NC(=O)[C@H](Cc2ccccc2)N(C)C(=O)[C@H](C)N(C)C1=O [Myostatin_99_v254] ({CH2CO}-A[dE]WY[NMeF]I[dP][Phe(3-OCH2COOH)][Phe(4-COOH)]R[NMeF][X1][NMeA][NMeF][dC]-{Piperazinyl(4-CH2COOH)}; thioether N-15) | 5.48 | 921 | 8.44 |  |  |  |
| CC[C@H](C)[C@@H]1NC(=O)[C@H](Cc2ccccc2)N(C)C(=O)[C@H](Cc2ccc(O)cc2)NC(=O)[C@H](Cc2c[nH]c3ncccc23)NC(=O)[C@H](C)NC(=O)CN(CCCC(=O)O)C(=O)CSC[C@H](C(=O)NCC(=O)N[C@H](CCC(=O)O)C(=O)NCC(=O)N[C@H](CCCCN)C(=O)O)NC(=O)[C@H](Cc2ccccc2)N(C)C(=O)[C@H](C)N(C)C(=O)[C@H](CC(C)C)NC(=O)[C@H](Cc2ccccc2)N(C)C(=O)[C@H](CCCNC(=N)N)NC(=O)[C@H](Cc2ccc(C(=O)O)cc2)NC(=O)[C@H](Cc2ccncc2)NC(=O)CN(C)C1=O [Myostatin_99_v31] ({CH2CO}-[Gly(N(CH2)3COOH)]A[Trp(7-aza)]Y[NMeF]I[Sar][4Pal][Phe(4-COOH)]R[NMeF]L[NMeA][NMeF][dC]G[dE]G[dK]-OH; thioether N-15) | 5.87 | 25 | 7.26 |  |  |  |
| CCCCCCC[C@@H]1NC(=O)[C@H](Cc2ccccc2)N(C)C(=O)[C@H](CCCNC(=N)N)NC(=O)[C@H](Cc2ccc(C(=O)O)cc2)NC(=O)[C@H](Cc2cccc(OCC(=O)O)c2)NC(=O)CN(C)C(=O)[C@H]([C@@H](C)CC)NC(=O)[C@H](Cc2ccccc2)N(C)C(=O)[C@H](Cc2ccc(O)cc2)NC(=O)[C@H](Cc2c[nH]c3ccccc23)NC(=O)[C@H](C)NC(=O)[C@H](C)NC(=O)CSC[C@H](C(=O)N2CCC(CC(N)=O)CC2)NC(=O)[C@H](Cc2ccccc2)N(C)C(=O)[C@H](CCC(=O)O)N(C)C1=O [Myostatin_99_v315] ({CH2CO}-AAWY[NMeF]I[Sar][Phe(3-OCH2COOH)][Phe(4-COOH)]R[NMeF][X1][NMeE][NMeF][dC]-X9; thioether N-15) |  |  |  | 7.25 | 541.6 | 10.00 |
